Measurements as given in patent publication US10221163B2 (priority 2015, dated 2019).
Where two headings read alike, the source gives them in different places.

Key:
VIM-1 = VIM-1 (Pseudomonas aeruginosa (strain ATCC 15692 / DSM 22644 / CIP 104116 / JCM 14847 / LMG 12228 / 1C / PRS 101 / PAO1), UniProt A0A0F7KYQ8); experiment: biochemical; settings: CCF2-FA substrate, 30 pM enzyme, 2 hours at 25° C.
How it was run: (§1)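 Test compound, enzyme and the FRET cephalosporin substrate CCF2-FA are incubated together for 2 hours at 25° C. Cleavage is followed by fluorescence, and IC50 values are derived from semi-logarithmic inhibition curves fitted with a 4-parameter model.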

[1] = test system: Serratia marcescens expressing IMP-1 (CL5741); assay type: cell-based; settings: IMP-1 strain CL5741, with imipenem 1 μg/ml, 95% inhibition of growth
How it was run: (§2)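 Clinical strains grown overnight on blood agar at 35°C, colonies suspended in saline, diluted 1:100 into 1.1×CAMHB. Test compound titrated with imipenem at 1 μg/ml; incubated 22–24 h at 35°C, growth read by absorbance.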

[2] = test system: Escherichia coli expressing NDM-1 (CLB30005, CLB30016); assay type: cell-based; settings: NDM-1 strain, with imipenem 1 μg/ml, 95% inhibition of growth
How it was run: as §2

[3] = test system: Klebsiella pneumoniae expressing VIM-1 (IHMA599644); assay type: cell-based; settings: VIM-1 strain IHMA599644, with imipenem 1 μg/ml, 95% inhibition of growth
How it was run: as §2

[4] = test system: Pseudomonas aeruginosa MB9798 vs MB9799; settings: ratio MITC95 PA_9798/MITC95 PA_9799
How it was run: (§3)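 P. aeruginosa PAO1-derived IMP-1 strains, efflux+ MB9798 and efflux− MB9799, tested by standard microbroth MIC with imipenem and/or ceftazidime fixed, usually at CLSI breakpoint, plus fixed class A/C β-lactamase inhibitor against AmpC. Inhibitor titrated; concentration restoring susceptibility recorded; MB9798/MB9799 fold difference indicates efflux.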

IMP-1 = IMP-1 (Serratia marcescens, UniProt P52699); experiment: biochemical; assay type: biochemical; settings: fluorescence assay, CCF2-FA substrate, 2 pM enzyme, 2 hours at 25° C.; read-out: IMP-1 IC50
How it was run: as §1

NDM-1 = NDM-1 (Klebsiella pneumoniae, UniProt C7C422); experiment: biochemical; assay type: biochemical; settings: fluorescence assay, CCF2-FA substrate, 1 pM enzyme, 2 hours at 25° C.; read-out: NDM-1 IC50
How it was run: as §1

[5] = test system: Pseudomonas aeruginosa efflux+ (MB9798), IMP-1; assay type: cell-based; settings: concentration restoring susceptibility to imipenem at 2 μg/mL in the presence of a class A, C, D serine β-lactamase inhibitor closely related to relebactam
How it was run: as §3

[6] = test system: Pseudomonas aeruginosa efflux− (MB9799), IMP-1; assay type: cell-based; settings: concentration restoring susceptibility to imipenem at 2 μg/mL in the presence of a class A, C, D serine β-lactamase inhibitor closely related to relebactam
How it was run: as §3

[7] = fluorescence assay, read-out: VIM-1 IC50

Chain of IMP-1 (P52699 whole entry, looked up, species assumed): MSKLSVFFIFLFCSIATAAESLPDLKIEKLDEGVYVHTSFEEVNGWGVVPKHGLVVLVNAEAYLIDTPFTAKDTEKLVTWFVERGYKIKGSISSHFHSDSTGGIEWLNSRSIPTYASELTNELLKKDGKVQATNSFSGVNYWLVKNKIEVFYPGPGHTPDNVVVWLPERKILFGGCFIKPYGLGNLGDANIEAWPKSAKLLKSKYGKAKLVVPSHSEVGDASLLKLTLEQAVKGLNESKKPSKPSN
Chain of NDM-1 (C7C422 whole entry, looked up, species assumed): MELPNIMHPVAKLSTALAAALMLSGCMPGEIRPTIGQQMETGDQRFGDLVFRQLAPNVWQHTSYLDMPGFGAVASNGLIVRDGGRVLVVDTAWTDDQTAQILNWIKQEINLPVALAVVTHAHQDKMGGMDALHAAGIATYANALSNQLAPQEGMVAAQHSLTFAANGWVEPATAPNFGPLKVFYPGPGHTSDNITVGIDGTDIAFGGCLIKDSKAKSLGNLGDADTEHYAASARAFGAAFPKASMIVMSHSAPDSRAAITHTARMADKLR

Structure (SMILES) | IC50 (VIM-1; [7]) | Serratia marcescens MITC95 [1] | Escherichia coli MITC95 [2] | Klebsiella pneumoniae MITC95 [3] | Efflux ratio [4] | IC50 (IMP-1) | IC50 (NDM-1) | P. aeruginosa expressing IMP-1, efflux + (MB9798) MITC95 [5] | P. aeruginosa expressing IMP-1, efflux − (MB9799) MITC95 [6] | IC50 (VIM-1; VIM-1 IC50, fluorescence assay)
NC[C@H](N)CNS(=O)(=O)c1ccc(-c2cnc(N)s2)c(-c2nn[nH]n2)c1S(N)(=O)=O [Example 372, (S)-4-(2-aminothiazol-5-yl)-N1-(2,3-diaminopropyl)-3-(2H-tetrazol-5-yl)benzene-1,2-disulfonamide] | 0.914 nM | 1.563 µM | 1.563 µM | 3.125 µM | 2.00 | 1.27 nM | 0.575 nM | 1.563 µM | 0.7813 µM | 
NC[C@H](N)CNS(=O)(=O)c1ccc(-c2cnc3cc[nH]c3c2)c(-c2nn[nH]n2)c1S(N)(=O)=O [Example 373, (S)-N1-(2,3-diaminopropyl)-4-(1H-pyrrolo[3,2-b]pyridin-6-yl)-3-(2H-tetrazol-5-yl)benzene-1,2-disulfonamide] |  | 1.563 µM | 0.3906 µM | 3.125 µM | 1.00 | 0.495 nM | 0.0516 nM | 1.563 µM | 1.563 µM | 0.121 nM
NC[C@@H](N)CNS(=O)(=O)c1ccc(-c2cccc3[nH]c(N)nc23)c(-c2nn[nH]n2)c1S(N)(=O)=O [Example 375, (R)-4-(2-amino-1H-benzo[d]imidazol-4-yl)-N1-(2,3-diaminopropyl)-3-(2H-tetrazol-5-yl)benzene-1,2-disulfonamide] |  | 1.563 µM | 0.3906 µM | 1.563 µM | 1.00 | 0.6 nM | 0.0588 nM | 1.563 µM | 1.563 µM | 0.233 nM
NC[C@@H](N)CNS(=O)(=O)c1ccc(-c2cccc3ccc(N)nc23)c(-c2nn[nH]n2)c1S(N)(=O)=O [Example 376, (R)-4-(2-aminoquinolin-8-yl)-N1-(2,3-diaminopropyl)-3-(2H-tetrazol-5-yl)benzene-1,2-disulfonamide] |  | 3.125 µM | 0.7813 µM | 3.125 µM | 1.00 | 0.273 nM | 0.0551 nM | 1.563 µM | 1.563 µM | 0.274 nM
NC[C@@H](N)CNS(=O)(=O)c1ccc(-c2cnc(N)s2)c(-c2nn[nH]n2)c1S(N)(=O)=O [Example 377, (R)-4-(2-aminothiazol-5-yl)-N1-(2,3-diaminopropyl)-3-(2H-tetrazol-5-yl)benzene-1,2-disulfonamide] | 0.885 nM | 1.563 µM | 0.7813 µM | 3.125 µM | 2.00 | 1.18 nM | 0.573 nM | 1.563 µM | 0.7813 µM | 
NC[C@@H](N)CNS(=O)(=O)c1ccc(-c2cnc3cc[nH]c3c2)c(-c2nn[nH]n2)c1S(N)(=O)=O [Example 378, (R)-N1-(2,3-diaminopropyl)-4-(1H-pyrrolo[3,2-b]pyridin-6-yl)-3-(2H-tetrazol-5-yl)benzene-1,2-disulfonamide] |  | 1.563 µM | 0.7813 µM | 3.125 µM | 2.00 | 0.354 nM | 0.0511 nM | 3.125 µM | 1.563 µM | 0.0985 nM
NCc1nc2c(-c3ccc(S(=O)(=O)N[C@@H](CN)CO)c(S(N)(=O)=O)c3-c3nn[nH]n3)cccc2[nH]1 [Example 379, (S)—N^1-(1-amino-3-hydroxypropan-2-yl)-4-(2-(aminomethyl)-1H-benzo[d]imidazol-4-yl)-3-(2H-tetrazol-5-yl)benzene-1,2-disulfonamide] |  | 1.563 µM | 1.563 µM | 1.563 µM | 2.00 | 0.626 nM | 0.0956 nM | 1.563 µM | 0.7813 µM | 0.135 nM
NC[C@@H](CO)NS(=O)(=O)c1ccc(-c2ccnc(N)c2)c(-c2nn[nH]n2)c1S(N)(=O)=O [Example 380, (S)—N1-(1-amino-3-hydroxypropan-2-yl)-4-(2-aminopyridin-4-yl)-3-(2H -tetrazol-5-yl)benzene-1,2-disulfonamide] |  | 0.7813 µM | 0.4883 µM | 1.563 µM | 1.00 | 0.544 nM | 0.178 nM | 0.7813 µM | 0.7813 µM | 0.179 nM
NCc1nc2c(-c3ccc(S(=O)(=O)N[C@@H](CN)CO)c(S(N)(=O)=O)c3-c3nn[nH]n3)cccc2s1 [Example 381, (S)—N1-(1-amino-3-hydroxypropan-2-yl)-4-(2-(aminomethyl)benzo[d]thiazol-4-yl)-3-(2H-tetrazol-5-yl)benzene-1,2-disulfonamide] |  | 1.172 µM | 0.7813 µM | 2.344 µM | 1.50 | 0.241 nM | 0.0602 nM | 1.172 µM | 0.7813 µM | 0.117 nM
NC[C@@H](CO)NS(=O)(=O)c1ccc(-c2cccc(N)n2)c(-c2nn[nH]n2)c1S(N)(=O)=O [Example 382, (S)—N1-(1-amino-3-hydroxypropan-2-yl)-4-(6-aminopyridin-2-yl)-3-(2H-tetrazol-5-yl)benzene-1,2-disulfonamide] | 0.271 nM | 1.563 µM | 1.563 µM | 3.125 µM | 1.00 | 0.651 nM | 0.22 nM | 1.563 µM | 1.563 µM | 
C[C@H](CN)NS(=O)(=O)c1ccc(-c2cccc3[nH]c(CN)nc23)c(-c2nn[nH]n2)c1S(N)(=O)=O [Example 383, (R)-4-(2-(aminomethyl)-1H-benzo[d]imidazol-4-yl)-N1-(1-aminopropan-2-yl)-3-(2H-tetrazol-5-yl)benzene-1,2-disulfonamide] | 0.102 nM | 1.563 µM | 0.7813 µM | 1.563 µM | 1.00 | 0.536 nM | 0.0568 nM | 0.7813 µM | 0.7813 µM | 
